From ChEMBL document CHEMBL4138123, “Design, synthesis and biological evaluation of novel pyrazolochalcones as potential modulators of PI3K/Akt/mTOR pathway and inducers of apoptosis in breast cancer cells” (Eur J Med Chem, 2017)

Tests used:
Type in all cases: functional
CCRF-CEM = test: Cytotoxicity against human CCRF-CEM cells assessed as growth inhibition after 48 hrs by sulforhodamine B assay
HL-60(TB) = test: Cytotoxicity against human HL-60(TB) cells assessed as growth inhibition after 48 hrs by sulforhodamine B assay; settings: HL-60, 48 h
NCI-H23 = test: Cytotoxicity against human NCI-H23 cells assessed as growth inhibition after 48 hrs by sulforhodamine B assay; settings: NCI-H23, 48 h
COLO 205 [1] = test: Cytotoxicity against human COLO205 cells assessed as growth inhibition after 48 hrs by sulforhodamine B assay; settings: COLO 205, 48 h
KM12 = test: Cytotoxicity against human KM12 cells assessed as growth inhibition after 48 hrs by sulforhodamine B assay; settings: KM12, 48 h
IGROV-1 [2] = test: Cytotoxicity against human IGROV1 cells assessed as growth inhibition after 48 hrs by sulforhodamine B assay; settings: IGROV-1, 48 h
NCI/ADR-RES [3] = test: Cytotoxicity against human NCI/ADR-RES cells assessed as growth inhibition after 48 hrs by sulforhodamine B assay
MDA-MB-231 = test: Cytotoxicity against human MDA-MB-231 cells assessed as growth inhibition after 48 hrs by sulforhodamine B assay; settings: MDA-MB-231, 48 h
MDA-MB-468 = test: Cytotoxicity against human MDA-MB-468 cells assessed as growth inhibition after 48 hrs by sulforhodamine B assay; settings: MDA-MB-468, 48 h
SK-MEL-5 = test: Cytotoxicity against human SK-MEL-5 cells assessed as cell growth at 0.01 uM after 48 hrs by sulforhodamine B assay relative to control; settings: SK-MEL-5, 48 h, read-out: Activity
Malme-3M = test: Cytotoxicity against human MALME-3M cells assessed as cell growth at 0.01 uM after 48 hrs by sulforhodamine B assay relative to control; settings: read-out: Activity
COLO 205 [4] = test: Cytotoxicity against human COLO205 cells assessed as cell growth at 0.01 uM after 48 hrs by sulforhodamine B assay relative to control; settings: COLO 205, 48 h, read-out: Activity
NCI-H322M = test: Cytotoxicity against human NCI-H322M cells assessed as cell growth at 0.01 uM after 48 hrs by sulforhodamine B assay relative to control; settings: read-out: Activity
SR = test: Cytotoxicity against human SR cells assessed as cell growth at 0.01 uM after 48 hrs by sulforhodamine B assay relative to control; settings: read-out: Activity
UO-31 [5] = test: Cytotoxicity against human UO31 cells assessed as cell growth at 0.01 uM after 48 hrs by sulforhodamine B assay relative to control; settings: UO-31, 48 h, read-out: Activity
BT-549 = test: Cytotoxicity against human BT549 cells assessed as cell growth at 0.01 uM after 48 hrs by sulforhodamine B assay relative to control; settings: BT-549, 48 h, read-out: Activity
HOP-62 [6] = test: Cytotoxicity against human HOP62 cells assessed as cell growth at 0.1 uM after 48 hrs by sulforhodamine B assay relative to control; settings: HOP-62, 48 h, read-out: Activity
NCI-H226 [7] = test: Cytotoxicity against human NCI-H226 cells assessed as cell growth at 0.1 uM after 48 hrs by sulforhodamine B assay relative to control; settings: NCI-H226, 48 h, read-out: Activity
MDA-MB-435 = test: Cytotoxicity against human MDA-MB-435 cells assessed as cell growth at 0.1 uM after 48 hrs by sulforhodamine B assay relative to control; settings: MDA-MB-435, 48 h, read-out: Activity
IGROV-1 [8] = test: Cytotoxicity against human IGROV1 cells assessed as cell growth at 0.1 uM after 48 hrs by sulforhodamine B assay relative to control; settings: IGROV-1, 48 h, read-out: Activity
A498 = test: Cytotoxicity against human A498 cells assessed as cell growth at 0.1 uM after 48 hrs by sulforhodamine B assay relative to control; settings: A498, 48 h, read-out: Activity
UO-31 [9] = test: Cytotoxicity against human UO31 cells assessed as cell growth at 0.1 uM after 48 hrs by sulforhodamine B assay relative to control; settings: UO-31, 48 h, read-out: Activity
HOP-62 [10] = test: Cytotoxicity against human HOP62 cells assessed as cell growth at 1 uM after 48 hrs by sulforhodamine B assay relative to control; settings: HOP-62, 48 h, read-out: Activity
NCI-H226 [11] = test: Cytotoxicity against human NCI-H226 cells assessed as cell growth at 1 uM after 48 hrs by sulforhodamine B assay relative to control; settings: NCI-H226, 48 h, read-out: Activity
HT-29 [12] = test: Cytotoxicity against human HT-29 cells assessed as cell growth at 1 uM after 48 hrs by sulforhodamine B assay relative to control; settings: HT-29, 48 h, read-out: Activity
U-251 = test: Cytotoxicity against human U251 cells assessed as cell growth at 1 uM after 48 hrs by sulforhodamine B assay relative to control; settings: U-251, 48 h, read-out: Activity
OVCAR-4 = test: Cytotoxicity against human OVCAR4 cells assessed as cell growth at 1 uM after 48 hrs by sulforhodamine B assay relative to control; settings: OVCAR-4, 48 h, read-out: Activity
ACHN = test: Cytotoxicity against human ACHN cells assessed as cell growth at 1 uM after 48 hrs by sulforhodamine B assay relative to control; settings: read-out: Activity
Hs-578T = test: Cytotoxicity against human Hs 578T cells assessed as cell growth at 1 uM after 48 hrs by sulforhodamine B assay relative to control; settings: read-out: Activity
HT-29 [13] = test: Cytotoxicity against human HT-29 cells assessed as cell growth at 10 uM after 48 hrs by sulforhodamine B assay relative to control; settings: HT-29, 48 h, read-out: Activity
M14 = test: Cytotoxicity against human M14 cells assessed as cell growth at 10 uM after 48 hrs by sulforhodamine B assay relative to control; settings: M14, 48 h, read-out: Activity
NCI/ADR-RES [14] = test: Cytotoxicity against human NCI/ADR-RES cells assessed as cell growth at 10 uM after 48 hrs by sulforhodamine B assay relative to control; settings: read-out: Activity
PC-3 = test: Cytotoxicity against human PC3 cells assessed as cell growth at 10 uM after 48 hrs by sulforhodamine B assay relative to control; settings: PC-3, 48 h, read-out: Activity
HT-29 [15] = test: Cytotoxicity against human HT-29 cells assessed as cell growth at 100 uM after 48 hrs by sulforhodamine B assay relative to control; settings: HT-29, 48 h, read-out: Activity
UO-31 [16] = test: Cytotoxicity against human UO31 cells assessed as cell growth at 100 uM after 48 hrs by sulforhodamine B assay relative to control; settings: UO-31, 48 h, read-out: Activity
MCF7 = test: Cytotoxicity against human MCF7 cells assessed as cell growth at 100 uM after 48 hrs by sulforhodamine B assay relative to control; settings: MCF7, 48 h, read-out: Activity

Molecule COc1ccc(C(=O)/C=C/c2cc(-c3cc(OC)c(OC)c(OC)c3)n[nH]2)cc1 has an LC50 (concentration killing 50% of cells) (CCRF-CEM) of over 100 µM, a TGI (CCRF-CEM) of 5.85 µM and an LC50 (HL-60(TB)) of over 100 µM. It also gave a TGI (HL-60(TB)) of 4.78 µM, a TGI (NCI-H23) of 12.2 µM and a CC50 (NCI-H23; read-out: LC50 (the source's name)) of over 100 µM. The LC50 (COLO 205 [1]) was 6.06 µM, the TGI (COLO 205 [1]) was 3.24 µM and the LC50 (KM12) was 6.02 µM. The TGI (KM12) was 3.06 µM, the LC50 (IGROV-1 [2]) was over 100 µM and the TGI (IGROV-1 [2]) was 4.81 µM. The LC50 (NCI/ADR-RES [3]) was over 100 µM, the TGI (NCI/ADR-RES [3]) was 9.85 µM and the LC50 (MDA-MB-231) was over 100 µM. The GI50 (MDA-MB-468) was 1.29 µM, the LC50 (MDA-MB-468) was 5.45 µM and the TGI (MDA-MB-468) was 2.65 µM. It also gave a growth at 0.01 µM (SK-MEL-5) of 100%, a growth at 0.01 µM (Malme-3M) of 95% and a growth at 0.01 µM (COLO 205 [4]) of 103%. The growth at 0.01 µM (NCI-H322M) was 92%, the growth at 0.01 µM (SR) was 97% and the growth at 0.01 µM (UO-31 [5]) was 87%. For the same molecule, the growth at 0.01 µM (BT-549) was 97%, the growth at 0.1 µM (HOP-62 [6]) was 102% and the growth at 0.1 µM (NCI-H226 [7]) was 102%. The growth at 0.1 µM (MDA-MB-435) was 95%, the growth at 0.1 µM (IGROV-1 [8]) was 102% and the growth at 0.1 µM (A498) was 87%. The growth at 0.1 µM (UO-31 [9]) was 96%, the growth at 1 µM (HOP-62 [10]) was 87% and the growth at 1 µM (NCI-H226 [11]) was 92%. The growth at 1 µM (HT-29 [12]) was 95%, the growth at 1 µM (U-251) was 81% and the growth at 1 µM (OVCAR-4) was 80%. For the same molecule, the growth at 1 µM (ACHN) was 105%, the growth at 1 µM (Hs-578T) was 96% and the growth at 10 µM (HT-29 [13]) was -58%. The growth at 10 µM (M14) was -44%, the growth at 10 µM (NCI/ADR-RES [14]) was -1% and the growth at 10 µM (PC-3) was -68%. For the same molecule, the growth at 100 µM (HT-29 [15]) was -19%, the growth at 100 µM (UO-31 [16]) was -79% and the growth at 100 µM (MCF7) was -69%.
